From US20240115654A1, “INTRAVENOUS ADMINISTRATION OF ENGINEERED ANTIMICROBIAL AMPHIPHILIC PEPTIDES” (priority 2021, published 2024)
Converted amounts (≈) assume the structure as drawn. Peptide text beside a SMILES is read from it.

How the values were obtained:
[1] = clinical; conditions: human, plasma, iv, Plasma Concentration by Nominal Time from Start of Infusion; for level at 0.5 h: 0.50 h
[2] = tested on: Staphylococcus aureus isolates (n = 104); test: microbe, parasite or virus in culture
Experimental: Comparator antibiotics were supplied by Micromyx, and stock solutions were prepared on the first day of testing using solvents recommended by CLSI (1). Stock solutions of all compounds were made at 40× the final testing concentration and stored at −80° C. prior to testing. Information regarding compound source, catalog and lot number, testing concentrations and drug diluent for the comparators and test agent are detailed below in Table 3.
The test organisms evaluated in this study consisted of clinical isolates from the Micromyx Repository and reference isolates from the American Type Culture Collection (ATCC; Manassas, VA). The clinical isolates were obtained from USA hospitals. Upon initial receipt at Micromyx, the organisms were sub-cultured onto an appropriate agar medium. Following incubation, colonies were harvested from these plates and cell suspensions prepared and frozen at −80° C. with a cryoprotectant. Prior to testing, the isolates were streaked from frozen vials onto Trypticase Soy Agar with 5% sheep blood (Becton Dickenson [BD]; Sparks, MD; Lot Nos. 7173618, 7166759, 7208688, 72144895, 7228505 and Remel Lenexa, KS Lot No. 212574). Plates were incubated at 35° C. overnight.
Mueller Hinton II broth (MHB II; BD; Lot Nos. 6258541 and 7143896) was used for MIC testing of aerobic organisms.
MIC values were determined using a broth microdilution procedure described by CLSI (1, 3). Automated liquid handlers (Multidrop 384, Labsystems, Helsinki, Finland; Biomek 2000 and Biomek FX, Beckman Coulter, Fullerton CA) were used to conduct serial dilutions and liquid transfers.
To prepare the drug mother plates, which would provide the serial drug dilutions for the replicate daughter plates, the wells of columns 2-12 of standard 96-well microdilution plates (Costar 3795) were filled with 150 μl of the designated diluent for each row of drug. The test articles and comparator compounds (300 μl at 40× the highest concentration to be tested) were dispensed into the appropriate wells in column 1. The Biomek 2000 was then used to make 2-fold serial dilutions in the mother plates from column 1 through column 11. The wells of Column 12 contained no drug and served as the organism growth control wells for the assay.
The daughter plates were loaded with 185 μL per well of MHB II using the Multidrop 384. The daughter plates were completed on the Biomek FX instrument which transferred 5 μL of drug solution from each well of a mother plate to the corresponding well of each daughter plate in a single step. A standardized inoculum of each test organism was prepared per CLSI methods (1). The inoculum for each organism was dispensed into sterile reservoirs divided by length (Beckman Coulter), and the Biomek 2000 was used to inoculate the plates. Daughter plates were placed on the Biomek 2000 work surface in reverse orientation so that inoculation took place from low to high drug concentration.
Plates were stacked 3-4 high, covered with a lid on the top plate, placed in plastic bags, and incubated at 35° C. for 16 to 20 hrs. Following incubation, the microplates were removed from the incubator and viewed from the bottom using a plate viewer. […] The MIC was read and recorded as the lowest concentration of drug that inhibited visible growth of the organism.
Clinical breakpoints to determine percent resistance within a given organism group were obtained from CLSI (3), with the exception of colistin for K. pneumoniae, Enterobacter spp., and E. coli, which are only available from EUCAST.

[3] = 0.05 mg/kg, Cohort 1, 0.05 mg/kg IV 1-hr infusion, individual subject
[4] = 0.05 mg/kg, Cohort 1, 0.05 mg/kg IV 1 hr infusion, individual subjects
[5] = 0.05 mg/kg, Mean, Cohort 1, 0.05 mg/kg IV 1-hr infusion, cohort mean
[6] = 0.05 mg/kg, Mean, Cohort 1, 0.05 mg/kg IV 1 hr infusion, cohort mean N 6
[7] = 0.5 mg/kg, Mean, Cohort 4, 0.5 mg/kg IV 2-hr infusion, cohort mean
[8] = 0.5 mg/kg, Mean, Cohort 4, 0.5 mg/kg IV, infusion 2 hours, cohort mean N 6
[9] = 1 mg/kg, Mean, Cohort 5, 1 mg/kg IV 4-hr infusion, cohort mean
[10] = Staphylococcus aureus (n = 104), all methicillin-resistant

What does the source list for CC(C)[C@H](NC(=O)[C@H](Cc1c[nH]c2ccccc12)NC(=O)[C@H](CCCNC(=N)N)NC(=O)[C@H](CCCNC(=N)N)NC(=O)[C@@H](NC(=O)[C@@H](NC(=O)[C@H](CCCNC(=N)N)NC(=O)[C@@H](NC(=O)[C@@H](NC(=O)[C@H](CCCNC(=N)N)NC(=O)[C@H](CCCNC(=N)N)NC(=O)[C@H](Cc1c[nH]c2ccccc12)NC(=O)[C@@H](NC(=O)[C@H](CCCNC(=N)N)NC(=O)[C@H](CCCNC(=N)N)NC(=O)[C@@H](NC(=O)[C@H](CCCNC(=N)N)NC(=O)[C@H](CCCNC(=N)N)NC(=O)[C@@H](NC(=O)[C@H](Cc1c[nH]c2ccccc12)NC(=O)[C@H](CCCNC(=N)N)NC(=O)[C@@H](N)CCCNC(=N)N)C(C)C)C(C)C)C(C)C)C(C)C)C(C)C)C(C)C)C(C)C)C(=O)N[C@@H](CCCNC(=N)N)C(=O)N[C@@H](CCCNC(=N)N)C(N)=O [SEQ ID NO: 1] (H-RRWVRRVRRVWRRVVRVVRRWVRR-NH2)?
level at 0 h [1, 3]: 6.03 ng/mL; level at 0.5 h [1, 3]: 166 ng/mL; level at 21 h [1, 3]: 12.6 ng/mL; level at 37 h [1, 3]: 6.59 ng/mL; level at 0 h [1, 4]: 6.03 ng/mL; level at 0.5 h [1, 4]: 166 ng/mL; level at 21 h [1, 4]: 12.6 ng/mL; level at 37 h [1, 4]: 6.59 ng/mL; level at 0 h [1, 5]: 1.01 ng/mL; level at 0.5 h [1, 5]: 189 ng/mL; level at 1 h [1, 5]: 256 ng/mL; level at 2 h [1, 5]: 108 ng/mL; level at 3 h [1, 5]: 96.4 ng/mL; level at 5 h [1, 5]: 79.5 ng/mL; level at 7 h [1, 5]: 62.5 ng/mL; level at 9 h [1, 5]: 56.9 ng/mL; level at 13 h [1, 5]: 31.5 ng/mL; level at 21 h [1, 5]: 15.4 ng/mL; level at 25 h [1, 5]: 14.8 ng/mL; level at 37 h [1, 5]: 1.1 ng/mL; level at […] [1, 5]: 134 ng/mL; level at 0 h [1, 6]: 1.01 ng/mL; level at 0.5 h [1, 6]: 189 ng/mL; level at 1 h [1, 6]: 256 ng/mL; level at 2 h [1, 6]: 108 ng/mL; level at 3 h [1, 6]: 96.4 ng/mL; level at 5 h [1, 6]: 79.5 ng/mL; level at 7 h [1, 6]: 62.5 ng/mL; level at 9 h [1, 6]: 56.9 ng/mL; level at 13 h [1, 6]: 31.5 ng/mL; level at 21 h [1, 6]: 15.4 ng/mL; level at 25 h [1, 6]: 14.8 ng/mL; level at 37 h [1, 6]: 1.1 ng/mL; level at […] [1, 6]: 134 ng/mL; level at 50 h ([1]; 0.5 mg/kg, Cohort 4, 0.5 mg/kg IV 2-hr infusion, individual subject): 45.9 ng/mL; level at 1 h [1, 7]: 1210 ng/mL; level at 2 h [1, 7]: 1830 ng/mL; level at 3 h [1, 7]: 616 ng/mL; level at 4 h [1, 7]: 451 ng/mL; level at 6 h [1, 7]: 330 ng/mL; level at 8 h [1, 7]: 249 ng/mL; level at 10 h [1, 7]: 219 ng/mL; level at 14 h [1, 7]: 134 ng/mL; level at 22 h [1, 7]: 76.3 ng/mL; level at 26 h [1, 7]: 72.5 ng/mL; level at 38 h [1, 7]: 41.2 ng/mL; level at 50 h [1, 7]: 25.7 ng/mL; level at […] [1, 7]: 877 ng/mL; level at 1 h [1, 8]: 1210 ng/mL; level at 2 h [1, 8]: 1830 ng/mL; level at 3 h [1, 8]: 616 ng/mL; level at 4 h [1, 8]: 451 ng/mL; level at 6 h [1, 8]: 330 ng/mL; level at 8 h [1, 8]: 249 ng/mL; level at 10 h [1, 8]: 219 ng/mL; level at 14 h [1, 8]: 134 ng/mL; level at 22 h [1, 8]: 76.3 ng/mL; level at 26 h [1, 8]: 72.5 ng/mL; level at 38 h [1, 8]: 41.2 ng/mL; level at 50 h [1, 8]: 25.7 ng/mL; level at […] [1, 8]: 877 ng/mL; level at 2 h [1, 9]: 2040 ng/mL; level at 4 h [1, 9]: 2650 ng/mL; level at 5 h [1, 9]: 1350 ng/mL; level at 6 h [1, 9]: 1130 ng/mL; level at 8 h [1, 9]: 803 ng/mL; level at 10 h [1, 9]: 604 ng/mL; level at 12 h ([1]; 1 mg/kg, Mean, Cohort 5, 1 mg/kg IV 4-hr infusion, 12 h, cohort mean): 487 ng/mL; level at 16 h ([1]; 1 mg/kg, Mean, Cohort 5, 1 mg/kg IV 4-hr infusion, 16 h, cohort mean): 287 ng/mL; level at 24 h ([1]; 1 mg/kg, Mean, Cohort 5, 1 mg/kg IV 4-hr infusion, 24 h, cohort mean): 167 ng/mL; level at 28 h ([1]; 1 mg/kg, Mean, Cohort 5, 1 mg/kg IV 4-hr infusion, 28 h, cohort mean): 180 ng/mL; level at 40 h ([1]; 1 mg/kg, Mean, Cohort 5, 1 mg/kg IV 4-hr infusion, 40 h, cohort mean): 98.7 ng/mL; level at 52 h ([1]; 1 mg/kg, Mean, Cohort 5, 1 mg/kg IV 4-hr infusion, 52 h, cohort mean): 99.6 ng/mL; level at […] [1, 9]: 1810 ng/mL; MIC50 ([2]; S. aureus MRSA, n=104): 4 µg/mL (≈ 1.18 µM); MIC90 ([2]; S. aureus MRSA, n=104): 8 µg/mL (≈ 2.35 µM); MIC range ([2]; S. aureus MRSA, n=104): 1 to 16 µg/mL; MIC50 [2, 10]: 4 µg/mL (≈ 1.18 µM); MIC90 [2, 10]: 8 µg/mL (≈ 2.35 µM); Mode (MIC) [2, 10]: 4 µg/mL
